Laboratory results reported in patent US20260364068A1, “ANTIVIRAL USE OF HETEROARYL DERIVATIVE COMPOUND” (UIF (University Industry Foundation), Yonsei University, priority 2022, published 2026).
Where two headings read alike, the source gives them in different places.

How the values were obtained:
Format in all cases: cell-based
[1] = Cell viability measurement (MTS), Vero cells; settings: monkey
Description: (§1) Experimental Example 3: Cell Viability Measurement
(§2) Vero cell line (VERO01WCB-1201, Ministry of Food and Drug Safety, Republic of Korea), Calu-3 cell line (KCLB #30055, Korea Cell Line Bank (KCLB), Republic of Korea), CellTiter 96® AQueous One Solution Cell Proliferation Assay kit (Promega, cat. #G3582), and Infinite M200 microplate reader (Tecan).
Vero cells were cultured at 37 °C and 5% CO2 in DMEM medium supplemented with 10% fetal bovine serum, 100 units/mL penicillin, and 100 μg/mL streptomycin.
(§3) Vero cells or Calu-3 cells were seeded in 96-well microplates and cultured for 24 hours until the cell confluency reached 20%. After the incubation, compounds were treated in DMSO at concentrations (1, 3, and 10 μM) to reach 0.5% v/v in each well, and reacted at 37 °C for 48 hours. Into each well of the incubated 96-well microplate, 3-(4,5-dimethylthiazol-2-yl)-5-(3-carboxymethoxyphenyl)-2-(4-sulfophenyl)-2H-tetrazolium salt (MTS) assay solution [CellTiter 96® AQueous One Solution Cell Proliferation Assay kit (Promega)] mixed with DMEM medium at a ratio of 1:5, was dispensed at 100 μL/well and incubated at 37 °C for 1 hour. The 490 nm and 690 nm absorbance was then measured using an Infinite M200 instrument.
(§4) The cell viability (also, referred to as cell survival rate) (%) by compound treatment was calculated using the following analysis method. The 690 nm background absorbance value was subtracted from the measured 490 nm absorbance value. Then, to obtain the cell viability of each test group, the viability of the DMSO-treated group that was not treated with the compound was set to 100% and then the relative viability 1 of each compound was calculated. Two to six repeated tests were performed to obtain the results, and the mean values of the results were categorized into the following ranges and shown in Table 5 below (A: 80% survived, B: 50-80% survived, N/A: not tested)

[2] = Cell viability measurement (MTS), Calu-3 cells; settings: human
Description: as §1, §2
Calu-3 cells were cultured at 37 °C and 5% CO2 in MEM medium supplemented with 10% fetal bovine serum, 2.2 g/L sodium bicarbonate, 1% 100 units/mL penicillin, and 100 μg/mL streptomycin.
as §3, §4

[3] = test system: Severe Acute Respiratory Syndrome Coronavirus Type 2; assay: microbe, parasite or virus in culture; settings: Vero, read-out: Virus replication inhibition efficacy
[4] = test system: Severe Acute Respiratory Syndrome Coronavirus Type 2; assay: microbe, parasite or virus in culture; settings: read-out: Virus replication inhibition efficacy
[5] = 10 uM, virus strain NCCP-43388, 48 hours
[6] = Calu-3, 10 uM, virus strain NCCP-43388, 48 hours
[7] = 10 uM, virus strain NCCP-43344, 48 hours
[8] = Calu-3, 10 uM, virus strain NCCP-43344, 48 hours

c1ccc(-c2ccc(Nc3cccc(-c4nc5ccccc5[nH]4)c3)nn2)cc1 [Example 2, N-(3-(1H-benzo[d]imidazol-2-yl)phenyl)-6-phenylpyridazin-3-amine]
viability at 48 h, 1 µM [1]: > 80% | viability at 48 h, 3 µM [1]: > 80% | viability at 48 h, 10 µM [1]: 50 to 80% | viability at 48 h, 1 µM [2]: 50 to 80% | inhibition at 10 µM [3, 5]: > 60% | inhibition at 10 µM [4, 6]: > 60%

Clc1cc2nc(-c3cccc(Nc4ccc(-c5ccccc5)nn4)c3)[nH]c2cc1Cl [Example 7, N-(3-(5,6-dichloro-1H-benzo[d]imidazol-2-yl)phenyl)-6-phenylpyridazin-3-amine]
viability at 48 h, 1 µM [1]: > 80% | viability at 48 h, 3 µM [1]: > 80% | inhibition at 10 µM [3, 7]: 30 to 60% | inhibition at 10 µM [4, 8]: 30 to 60%

FC(F)(F)c1cc2nc(-c3cccc(Nc4ccc(-c5ccccc5)nn4)c3)[nH]c2cc1Cl [Example 8, N-{3-[6-chloro-5-(trifluoromethyl)-1H-benzo[d]imidazol-2-yl]phenyl}-6-phenylpyridazin-3-amine]
viability at 48 h, 1 µM [1]: > 80% | viability at 48 h, 3 µM [1]: > 80% | inhibition at 10 µM [3, 7]: 30 to 60% | inhibition at 10 µM [4, 8]: 30 to 60%

FC(F)(F)c1cc2nc(-c3cccc(Nc4ccc(-c5ccccc5)nn4)c3)[nH]c2cc1Br [Example 9, N-{3-[6-bromo-5-(trifluoromethyl)-1H-benzo[d]imidazol-2-yl]phenyl}-6-phenylpyridazin-3-amine]
viability at 48 h, 1 µM [1]: > 80% | viability at 48 h, 3 µM [1]: 50 to 80% | inhibition at 10 µM [3, 7]: 30 to 60%

c1ccc(-c2ccc(Nc3cccc(-c4nc5ccccc5[nH]4)c3)cc2)nc1 [Example 20, 3-(1H-benzo[d]imidazol-2-yl)-N-(4-(pyridin-2-yl)phenyl)aniline]
viability at 48 h, 1 µM [1]: > 80% | viability at 48 h, 10 µM [1]: 50 to 80% | viability at 48 h, 1 µM [2]: > 80% | viability at 48 h, 3 µM [2]: 50 to 80% | inhibition at 10 µM [3, 5]: > 60% | inhibition at 10 µM [4, 6]: > 60%

c1cc(Nc2ccc(-c3cccnn3)cc2)cc(-c2nc3ccccc3[nH]2)c1 [Example 21, 3-(1H-benzo[d]imidazol-2-yl)-N-(4-(pyridazin-3-yl)phenyl)aniline]
viability at 48 h, 3 µM [1]: > 80% | viability at 48 h, 10 µM [1]: 50 to 80% | viability at 48 h, 1 µM [2]: > 80% | viability at 48 h, 3 µM [2]: 50 to 80% | viability at 48 h, 10 µM [2]: 50 to 80% | inhibition at 10 µM [3, 5]: > 60% | inhibition at 10 µM [4, 6]: > 60%

c1cc(Nc2ccc(-c3ccncn3)cc2)cc(-c2nc3ccccc3[nH]2)c1 [Example 22, N-[3-(1H-benzo[d]imidazol-2-yl)phenyl]-4-(pyrimidin-4-yl)aniline]
viability at 48 h, 1 µM [1]: > 80% | viability at 48 h, 3 µM [1]: > 80% | viability at 48 h, 10 µM [1]: 50 to 80% | viability at 48 h, 1 µM [2]: > 80% | inhibition at 10 µM [3, 7]: > 60% | inhibition at 10 µM [4, 8]: > 60%

FC(F)(F)c1ccc2nc(-c3cccc(Nc4ccc(-c5ncccn5)cc4)c3)[nH]c2c1 [Example 27, N-[4-(pyrimidin-2-yl)phenyl]-3-[6-(trifluoromethyl)-1H-benzo[d]imidazol-2-yl]aniline]
viability at 48 h, 1 µM [1]: > 80% | viability at 48 h, 3 µM [1]: > 80% | inhibition at 10 µM [3, 5]: > 60% | inhibition at 10 µM [4, 6]: > 60%

FC(F)(F)c1ccc2nc(-c3cccc(Nc4ccc(-c5cncnc5)cc4)c3)[nH]c2c1 [Example 28, N-[4-(pyrimidin-5-yl)phenyl]-3-[6-(trifluoromethyl)-1H-benzo[d]imidazol-2-yl]aniline]
viability at 48 h, 1 µM [1]: > 80% | inhibition at 10 µM [3, 5]: > 60% | inhibition at 10 µM [4, 6]: > 60%

c1cc(Nc2ncc(-c3ccncn3)cn2)cc(-c2nc3ccccc3[nH]2)c1 [Example 76, N-[3-(1H-benzo[d]imidazol-2-yl)phenyl]-[4,5′-bipyrimidin]-2′-amine]
inhibition at 10 µM [3, 5]: 30 to 60% | inhibition at 10 µM [4, 6]: 30 to 60%

FC(F)(F)c1ccc2nc(-c3cccc(Nc4ncc(-c5ccccn5)cn4)c3)[nH]c2c1 [Example 83, 5-(2-pyridyl)-N-[3-[6-(trifluoromethyl)-1H-benzo[d]imidazol-2-yl]phenyl]pyrimidin-2-amine]
viability at 48 h, 1 µM [2]: > 80% | viability at 48 h, 3 µM [2]: > 80% | viability at 48 h, 10 µM [2]: > 80% | inhibition at 10 µM [3, 5]: 30 to 60% | inhibition at 10 µM [4, 6]: 30 to 60%

Cc1noc(-c2ccc3nc(-c4cccc(Nc5ccc(-c6cccnn6)cc5)c4)[nH]c3c2)n1 [Example 93, 3-(6-(3-methyl-1,2,4-oxadiazol-5-yl)-1H-benzo[d]imidazol-2-yl)-N-(4-(pyridazin-3-yl)phenyl)aniline]
viability at 48 h, 1 µM [2]: > 80% | viability at 48 h, 3 µM [2]: > 80% | viability at 48 h, 10 µM [2]: > 80% | inhibition at 10 µM [3, 5]: 30 to 60% | inhibition at 10 µM [4, 6]: > 60%

Fc1cc2[nH]c(-c3cccc(Nc4ccc(-c5cccnn5)cc4)c3)nc2cc1Cl [Example 102, 3-(5-chloro-6-fluoro-1H-benzo[d]imidazol-2-yl)-N-(4-pyridazin-3-ylphenyl)aniline]
viability at 48 h, 1 µM [2]: > 80% | viability at 48 h, 3 µM [2]: > 80% | viability at 48 h, 10 µM [2]: 50 to 80% | inhibition at 10 µM [3, 5]: > 60% | inhibition at 10 µM [4, 6]: > 60%

Cc1ccc2nc(-c3cccc(Nc4ccc(-c5cccnn5)cc4)c3)[nH]c2c1 [Example 105, 3-(6-methyl-1H-benzo[d]imidazol-2-yl)-N-(4-pyridazin-3-ylphenyl)aniline]
viability at 48 h, 1 µM [2]: > 80% | viability at 48 h, 3 µM [2]: 50 to 80% | viability at 48 h, 10 µM [2]: 50 to 80% | inhibition at 10 µM [3, 5]: > 60% | inhibition at 10 µM [4, 6]: > 60%

c1cc(Nc2ncc(-c3ccsc3)cn2)cc(-c2nc3ccccc3[nH]2)c1 [Example 164, N-[3-(1H-benzo[d]imidazol-2-yl)phenyl]-5-(3-thienyl)pyrimidin-2-amine]
inhibition at 10 µM [3, 5]: > 60% | inhibition at 10 µM [4, 6]: > 60%

c1cc(Nc2ncc(-c3ncco3)cn2)cc(-c2nc3ccccc3[nH]2)c1 [Example 171, N-[3-(1H-benzo[d]imidazol-2-yl)phenyl]-5-oxazol-2-yl-pyrimidin-2-amine]
inhibition at 10 µM [3, 5]: > 60% | inhibition at 10 µM [4, 6]: > 60%

Clc1ccc2nc(-c3cccc(Nc4ccc(-c5cccnn5)cc4)c3)[nH]c2c1 [Example 226, 3-(6-chloro-1H-benzo[d]imidazol-2-yl)-N-(4-(pyridazin-3-yl)phenyl)aniline]
inhibition at 10 µM [3, 5]: > 60% | inhibition at 10 µM [4, 6]: > 60%

O=[N+]([O-])c1ccc2nc(-c3cccc(Nc4ccc(-c5cccnn5)cc4)c3)[nH]c2c1 [Example 227, 3-(6-nitro-1H-benzo[d]imidazol-2-yl)-N-(4-(pyridazin-3-yl)phenyl)aniline]
inhibition at 10 µM [3, 5]: 30 to 60% | inhibition at 10 µM [4, 6]: > 60%

N#Cc1ccc2nc(-c3cccc(Nc4ccc(-c5cccnn5)cc4)c3)[nH]c2c1 [Example 231, 2-(3-((4-(pyridazin-3-yl)phenyl)amino)phenyl)-1H-benzo[d]imidazole-6-carbonitrile]
inhibition at 10 µM [3, 5]: > 60% | inhibition at 10 µM [4, 6]: > 60%

FC(F)(F)Oc1cc2[nH]c(-c3cccc(Nc4ccc(-c5cccnn5)cc4)c3)nc2cn1 [Example 232, N-(4-(pyridazin-3-yl)phenyl)-3-(6-(trifluoromethoxy)-1H-imidazo[4,5-c]pyridin-2-yl)aniline]
inhibition at 10 µM ([3]; 48 h): 30 to 60% | inhibition at 10 µM ([4]; Calu-3, 48 h): > 60%

Fc1cccc(-c2cnc(Nc3cccc(-c4nc5ccc(C(F)(F)F)cc5[nH]4)c3)nc2)n1 [Example 258, 5-(6-fluoropyridin-2-yl)-N-(3-(6-(trifluoromethyl)-1H-benzo[d]imidazol-2-yl)phenyl)pyrimidin-2-amine]
inhibition at 10 µM [3, 5]: 30 to 60%

Fc1cccc(-c2cnc(Nc3cccc(-c4nc5ccccc5[nH]4)c3)nc2)n1 [Example 259, N-(3-(1H-benzo[d]imidazol-2-yl)phenyl)-5-(6-fluoropyridin-2-yl)pyrimidin-2-amine]
inhibition at 10 µM [3, 5]: > 60% | inhibition at 10 µM [4, 6]: > 60%
